Values quoted from earlier work in patent publication US20060292214A1, “Nanoparticulate acetaminophen formulations” (Elan Pharma International Limited, priority 2005, published 2006).

solubility in water: practically insoluble in water
SMILES: CC(=O)Nc1ccc(O)cc1 [acetaminophen, 4′-hydroxyacetanilide]
